Legend:
[1] = tested on: CVB2 (strain Ohio-1); experiment: CPE inhibition assay for anti-CVBs, CVB2 in Vero cells; assay type: cell-based, coxsackievirus B2; conditions: Enterovirus B, CVB2, 100 TCID50, Vero cells
Procedure: (§1) The anti-virus activity of formononetin on CVBs was also assayed by CPE method. Briefly, cells (3 × 10^4 cells/well) were plated into 96-well culture plates for incubation of 24 h. The medium was removed and cells were infected with 100 TCID50 of CVB2, CVB6 or CVB3. Then, various concentrations of formononetin were supplemented for incubation of another 48 h. The IC50 was determined by Reed and Muench method. The SI was calculated as the ratio of TC50/IC50 [19].

[2] = tested on: Vero cells; experiment: Cytotoxicity assay (MTS) in Vero cells; assay type: cell-based; conditions: 3 days
Procedure: Cytotoxic effect of formononetin on Vero or SK-N-SH cells was assayed by MTS (promega) assay. Briefly, cells (3 × 10^4 cells/well) were seeded into 96-well culture plates and were incubated overnight. Then, the medium was removed and different concentrations of formononetin were applied in triplicate. After 3 days’ incubation, the cytotoxicity of formononetin was determined by MTS assay. The TC50 was defined as the concentration that inhibits 50% cellular growth in comparison with the controls and the TC0 was defined as the maximal non-toxicity dose.

[3] = tested on: EV71 strain JS-52; experiment: CPE inhibition assay, EV71 strain JS-52 in Vero cells; assay type: cell-based, enterovirus 71; conditions: Enterovirus A, EV71 JS-52, Vero cells
Procedure: (§2) The anti-EV71 activity of formononetin was assayed by CPE inhibition method. Briefly, cells (3 × 10^4 cells/well) were plated into 96-well culture plates for incubation of 24 h. The medium was then removed and cells were infected with EV71 of 80 pfu/well. Then, various concentrations of formononetin were supplemented for incubation of another 48 h. The IC50 defined as the minimal concentration of inhibitor required to inhibit 50% of CPE was determined by Reed & Muench method. The selectivity index (SI) was calculated as the ratio of TC50/IC50 [19].

[4] = tested on: EV71 strain BrCr; experiment: CPE inhibition assay, EV71 strain BrCr in Vero cells; assay type: cell-based, enterovirus 71; conditions: Enterovirus A
Procedure: as §2

[5] = tested on: CVB6 (strain Schmitt); experiment: CPE inhibition assay for anti-CVBs, CVB6 in Vero cells; assay type: cell-based, coxsackievirus B6; conditions: Enterovirus B, CVB6, 100 TCID50, Vero cells
Procedure: as §1

[6] = tested on: CVB3 (strain Nancy); experiment: CPE inhibition assay for anti-CVBs, CVB3 in Vero cells; assay type: cell-based, coxsackievirus B3; conditions: Enterovirus B, CVB3, 100 TCID50, Vero cells
Procedure: as §1

[7] = tested on: EV71 VP1 protein; experiment: Immunofluorescence assay of EV71 VP1 protein in SK-N-SH cells; assay type: cell-based, enterovirus 71; conditions: EV71 SHZH98 160 pfu/well, 24 h treatment
Description: Figure 2 The antiviral effect of formononetin and pirodavir against EV71 in SK-N-SH cells. (A) Formononetin and pirodavir reduced the expression of EV71 VP1 protein in SK-N-SH cells by western blot assay. (B) Formononetin and pirodavir reduced the expression of EV71 VP1 protein in SK-N-SH cells by immunofluorescence assay. Cells were examined using a fluorescence microscopy (×100). (C) Formononetin and pirodavir reduced the expression of EV71 VP1 RNA by one-step qRT-PCR assay. *P < 0.001 ^# P < 0.05.
SK-N-SH cells grown on glass coverslips (Thermo) were infected with EV71 (SHZH98) of 160 pfu/well for 2 h. Then, various concentrations of formononetin were supplemented for incubation of another 24 h. After incubation, the culture medium was removed and the cells were washed and fixed. The cells were permeabilized in 0.5% Triton X-100 at room temperature for 15 min and blocked in PBS containing 1% BSA for 60 min at room temperature. Cells were then incubated with an anti-EV71 VP1 antibody (Abnova) at a dilution of 1: 500 for 2 h at room temperature. After washing three times with PBS, the samples were reacted with Alexa Fluor 488-labeled goat anti-mouse secondary antibody (Beyotime Institute of Biotechnology, China) for 1 h at room temperature. After washing with PBS, images were taken using a fluorescence microscope (Olympus, IX71).

[8] = tested on: EV71; experiment: Antiviral activity against EV71, comparison of pirodavir and pleconaril (data not shown); assay type: cell-based, enterovirus 71

## COc1ccc(-c2coc3cc(O)ccc3c2=O)cc1 [Formononetin]
[1]
  IC50: 9.56 ± 2.23 µM
[2]
  TC0 (maximal non-toxicity dose): 41.42 ± 0 µmol/L
  TC50 (50% toxicity concentration): 149.38 ± 12.15 µM
[2]; listed as formononetin
  TC0 (maximal non-toxicity dose): 41.42 µmol/L
  TC50 (50% toxicity concentration): 149.38 µM
[3]
  IC50: 17.9 ± 8.51 µM
[4]
  IC50: 6.47 ± 4.4 µM
[5]
  IC50: 5.33 ± 1.48 µM
[6]
  IC50: 2.57 ± 0.87 µM

## CCOC(=O)c1ccc(OCCC2CCN(c3ccc(C)nn3)CC2)cc1 [Pirodavir, reference compound]
[7]
  Expression of EV71 VP1 protein (immunofluorescence assay): reduced
[8]
  Antiviral activity against EV71 compared with pleconaril: better than pleconaril
